Among the data in patent US20160326142A1, “PYRAZOLE CARBOXAMIDE COMPOUNDS, COMPOSITIONS AND METHODS OF USE” (Genentech, Inc., priority 2012, published 2016) are Ki values, retold here.

The term Ki denotes a dissociation constant, usually derived from enzyme kinetics or from competition with a known ligand.

The target of the assay is T1, ITK (Homo sapiens, UniProt Q08881).
T1 construct: purchased Invitrogen PV3875
T1 sequence (Q08881 1-620): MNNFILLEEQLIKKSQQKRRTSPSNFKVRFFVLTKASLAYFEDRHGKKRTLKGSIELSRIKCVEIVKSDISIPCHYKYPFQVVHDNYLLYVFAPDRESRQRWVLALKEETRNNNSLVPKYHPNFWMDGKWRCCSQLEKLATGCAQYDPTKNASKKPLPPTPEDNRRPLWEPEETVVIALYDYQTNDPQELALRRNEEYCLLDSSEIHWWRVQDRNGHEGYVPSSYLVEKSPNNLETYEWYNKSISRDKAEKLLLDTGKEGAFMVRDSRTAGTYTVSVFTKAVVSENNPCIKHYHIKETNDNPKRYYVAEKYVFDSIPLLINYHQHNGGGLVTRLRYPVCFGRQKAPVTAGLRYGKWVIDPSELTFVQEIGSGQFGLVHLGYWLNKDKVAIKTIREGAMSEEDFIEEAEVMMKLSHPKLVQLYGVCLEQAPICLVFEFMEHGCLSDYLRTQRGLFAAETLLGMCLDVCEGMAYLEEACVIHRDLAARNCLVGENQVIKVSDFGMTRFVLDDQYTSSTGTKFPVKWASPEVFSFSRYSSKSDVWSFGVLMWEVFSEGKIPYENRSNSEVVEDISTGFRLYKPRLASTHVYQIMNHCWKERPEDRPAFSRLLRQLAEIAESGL
As to the kind of experiment: ITK enzyme assay (Caliper or LCMS peptide phosphorylation). It is filed as biochemical. The conditions noted are these: purified ITK (Invitrogen PV3875), 20 μM ATP, Ki by Morrison's quadratic equation. The method, then: The ability of purified ITK (Invitrogen PV3875) to catalyze peptide phosphorylation is monitored using a Caliper LabChip 3000 microfluidic unit (Caliper assay) or by liquid chromatography-mass spectrometry (LCMS) using a Waters Acquity system (LCMS assay). […] Reactions are quenched by the addition of 2,2′,2″,2′″-(ethane-1,2-diyldinitrilo)tetraacetic acid (50 mM final). Non-phosphorylated substrate and phosphorylated product peptides are separated and quantified using a Caliper LabChip 3000 instrument. […] Reactions are quenched by the addition of trichloroacetic acid (5% v/v final). Non-phosphorylated substrate and phosphorylated product peptides are separated by ultra performance LC and detected by a coupled triple quadrupole MS device applying multiple reaction monitoring (MRM) for quantification. The area of the MRM-extracted mass signal is used to assess the inhibition by test compounds. Equilibrium dissociation constant (Ki) values for ITK inhibitors are calculated from plots of activity vs. inhibitor concentration using Morrison's quadratic equation that accounts for the potential of tight binding, and by also applying the conversion factor that accounts for competitive inhibition and the concentration of ATP used in the assay relative to its apparent Michaelis constant (Km,app).
For the compound `CC1(C)CCc2c(C(=O)Nc3cnn(C(CCN)c4ccccc4)c3)n[nH]c2C1` (single isomer, unassigned) [Example 42b, N-(1-(3-amino-1-phenylpropyl)-1H-pyrazol-4-yl)-6,6-dimethyl-4,5,6,7-tetrahydro-1H-indazole-3-carboxamide], the Ki was 0.9 nM.

Take `CN1CCC(C(c2ccccc2)n2cc(NC(=O)c3n[nH]c4c3CCC(C)(C)C4)cn2)CC1` (single isomer, unassigned) [Example 43a, 6,6-dimethyl-N-(1-((1-methylpiperidin-4-yl)(phenyl)methyl)-1H-pyrazol-4-yl)-4,5,6,7-tetrahydro-1H-indazole-3-carboxamide]: the Ki was found to be 0.2 nM.

Turning to `CN1CCC(C(c2ccccc2)n2cc(NC(=O)c3n[nH]c4c3CCC(C)(C)C4)cn2)CC1` (single isomer, unassigned) [Example 43b, 6,6-dimethyl-N-(1-((1-methylpiperidin-4-yl)(phenyl)methyl)-1H-pyrazol-4-yl)-4,5,6,7-tetrahydro-1H-indazole-3-carboxamide], affinity was put at a Ki of 6.2 nM.

As for `CC1(C)CCc2c(C(=O)Nc3cnn(C(c4ccccc4)C4(F)CCNCC4)c3)n[nH]c2C1` (single isomer, unassigned) [Example 44a, N-(1-((4-fluoropiperidin-4-yl)(phenyl)methyl)-1H-pyrazol-4-yl)-6,6-dimethyl-4,5,6,7-tetrahydro-1H-indazole-3-carboxamide], the Ki amounted to 6 nM. This Ki and that of the compound before are within 1.5-fold of each other.

`CC1(C)CCc2c(C(=O)Nc3cnn(C(c4ccccc4)C4(F)CCNCC4)c3)n[nH]c2C1` (single isomer, unassigned) [Example 44b, N-(1-((4-fluoropiperidin-4-yl)(phenyl)methyl)-1H-pyrazol-4-yl)-6,6-dimethyl-4,5,6,7-tetrahydro-1H-indazole-3-carboxamide] returned a Ki of 0.2 nM.

`CC1(C)CCc2c(C(=O)Nc3cnn(C(c4ccccc4)C4CN(S(C)(=O)=O)C4)c3)n[nH]c2C1` (single isomer, unassigned) [Example 45a, 6,6-dimethyl-N-(1-((1-(methylsulfonyl)azetidin-3-yl)(phenyl)methyl)-1H-pyrazol-4-yl)-4,5,6,7-tetrahydro-1H-indazole-3-carboxamide] returned a Ki of 370 nM.

Turning to `CC1(C)CCc2c(C(=O)Nc3cnn(C(c4ccccc4)C4CN(S(C)(=O)=O)C4)c3)n[nH]c2C1` (single isomer, unassigned) [Example 45b, 6,6-dimethyl-N-(1-((1-(methylsulfonyl)azetidin-3-yl)(phenyl)methyl)-1H-pyrazol-4-yl)-4,5,6,7-tetrahydro-1H-indazole-3-carboxamide], the Ki is 48 nM. This Ki lies about 7.7-fold lower than the previous one.

Turning to `Cc1cccc(C(C2CNC2)n2cc(NC(=O)c3n[nH]c4c3CCC(C)(C)C4)cn2)c1` (single isomer, unassigned) [Example 47a, N-(1-(azetidin-3-yl(m-tolyl)methyl)-1H-pyrazol-4-yl)-6,6-dimethyl-4,5,6,7-tetrahydro-1H-indazole-3-carboxamide], the Ki is 2 nM. This Ki is about 24-fold lower than that of the compound before.

In turn, `Cc1cccc(C(C2CNC2)n2cc(NC(=O)c3n[nH]c4c3CCC(C)(C)C4)cn2)c1` (single isomer, unassigned) [Example 47b, N-(1-(azetidin-3-yl(m-tolyl)methyl)-1H-pyrazol-4-yl)-6,6-dimethyl-4,5,6,7-tetrahydro-1H-indazole-3-carboxamide] gave a Ki of 9 nM.

On to `CC1(C)CCc2c(C(=O)Nc3cnn(C(c4ccccc4)C4(F)CNC4)c3)n[nH]c2C1` (single isomer, unassigned) [Example 49a, N-(1-((3-fluoroazetidin-3-yl)(phenyl)methyl)-1H-pyrazol-4-yl)-6,6-dimethyl-4,5,6,7-tetrahydro-1H-indazole-3-carboxamide], for which the Ki amounted to 10 nM.

`CC1(C)CCc2c(C(=O)Nc3cnn(C(c4ccccc4)C4(F)CNC4)c3)n[nH]c2C1` (single isomer, unassigned) [Example 49b, N-(1-((3-fluoroazetidin-3-yl)(phenyl)methyl)-1H-pyrazol-4-yl)-6,6-dimethyl-4,5,6,7-tetrahydro-1H-indazole-3-carboxamide] displayed a Ki of 2 nM. Against the preceding compound, the Ki is about 5-fold lower.

As to `O=C(Nc1cnn(Cc2ccccc2)c1)c1n[nH]c2c1CCC1(CCCO1)C2` (single isomer, unassigned) [Example 50a, N-(1-benzyl-1H-pyrazol-4-yl)-1′,4,4′,5,5′,7′-hexahydro-3H-spiro[furan-2,6′-indazole]-3′-carboxamide], the Ki was 260 nM.

The compound `O=C(Nc1cnn(Cc2ccccc2)c1)c1n[nH]c2c1CCC1(CCCO1)C2` (single isomer, unassigned) [Example 50b, N-(1-benzyl-1H-pyrazol-4-yl)-1′,4,4′,5,5′,7′-hexahydro-3H-spiro[furan-2,6′-indazole]-3′-carboxamide] showed an inhibitory constant (Ki) of 620 nM. This Ki lies about 2.4-fold higher than the previous one.

`CC1(O)CCc2c(C(=O)Nc3cnn(Cc4ccccc4)c3)n[nH]c2C1` (single isomer, unassigned) [Example 51a, N-(1-benzyl-1H-pyrazol-4-yl)-6-hydroxy-6-methyl-4,5,6,7-tetrahydro-1H-indazole-3-carboxamide] returned a Ki of 160 nM.

As to `CN(C)CCC(c1ccccc1)n1cc(NC(=O)c2n[nH]c3c2CC2CC2(C)C3)cn1` (single isomer, unassigned) [Example 52a, N-(1-(3-(dimethylamino)-1-phenylpropyl)-1H-pyrazol-4-yl)-5a-methyl-1,4,4a,5,5a,6-hexahydrocyclopropa[f]indazole-3-carboxamide], the affinity, expressed as Ki, was 0.2 nM.

For `CN(C)CCC(c1ccccc1)n1cc(NC(=O)c2n[nH]c3c2CC2CC2(C)C3)cn1` (single isomer, unassigned) [Example 52b, N-(1-(3-(dimethylamino)-1-phenylpropyl)-1H-pyrazol-4-yl)-5a-methyl-1,4,4a,5,5a,6-hexahydrocyclopropa[f]indazole-3-carboxamide], the inhibition constant (Ki) was 17 nM. This Ki lies about 85-fold higher than the previous one.

In turn, `CN(C)CCC(c1ccccc1)n1cc(NC(=O)c2n[nH]c3c2CC2CC2(C)C3)cn1` (single isomer, unassigned) [Example 52c, N-(1-(3-(dimethylamino)-1-phenylpropyl)-1H-pyrazol-4-yl)-5a-methyl-1,4,4a,5,5a,6-hexahydrocyclopropa[f]indazole-3-carboxamide] displayed a Ki of 2 nM.

On to `CN(C)CCC(c1ccccc1)n1cc(NC(=O)c2n[nH]c3c2CC2CC2(C)C3)cn1` (single isomer, unassigned) [Example 52d, N-(1-(3-(dimethylamino)-1-phenylpropyl)-1H-pyrazol-4-yl)-5a-methyl-1,4,4a,5,5a,6-hexahydrocyclopropa[f]indazole-3-carboxamide], for which the affinity corresponds to a Ki of 100 nM.

In turn, `CC1(C)CCc2c(C(=O)Nc3cnn(C(CO)c4ccccc4)c3)n[nH]c2C1` (single isomer, unassigned) [Example 53a, N-(1-(2-hydroxy-1-phenylethyl)-1H-pyrazol-4-yl)-6,6-dimethyl-4,5,6,7-tetrahydro-1H-indazole-3-carboxamide] gave a Ki of 5 nM.

Take `CC1(C)CCc2c(C(=O)Nc3cnn(C(CO)c4ccccc4)c3)n[nH]c2C1` (single isomer, unassigned) [Example 53b, N-(1-(2-hydroxy-1-phenylethyl)-1H-pyrazol-4-yl)-6,6-dimethyl-4,5,6,7-tetrahydro-1H-indazole-3-carboxamide]: affinity was put at a Ki of 29 nM.

`CCC(c1cccnc1)n1cc(NC(=O)c2n[nH]c3c2CCC(C)(C)C3)cn1` (single isomer, unassigned) [Example 54a, 6,6-dimethyl-N-(1-(1-(pyridin-3-yl)propyl)-1H-pyrazol-4-yl)-4,5,6,7-tetrahydro-1H-indazole-3-carboxamide] gave an inhibitory constant (Ki) of 1 nM.

For `CCC(c1cccnc1)n1cc(NC(=O)c2n[nH]c3c2CCC(C)(C)C3)cn1` (single isomer, unassigned) [Example 54b, 6,6-dimethyl-N-(1-(1-(pyridin-3-yl)propyl)-1H-pyrazol-4-yl)-4,5,6,7-tetrahydro-1H-indazole-3-carboxamide], the inhibitory constant (Ki) was found to be 6 nM.

As to `CC1(C)CCc2c(C(=O)Nc3cnn(C(c4ccccc4)C(C)(C)O)c3)n[nH]c2C1` (single isomer, unassigned) [Example 55a, N-(1-(2-hydroxy-2-methyl-1-phenylpropyl)-1H-pyrazol-4-yl)-6,6-dimethyl-4,5,6,7-tetrahydro-1H-indazole-3-carboxamide], the Ki is 5 nM.
